Source: publication PMC9218946, “Identification of a Subtype-Selective Allosteric Inhibitor of GluN1/GluN3 NMDA Receptors” (Frontiers in Pharmacology, 2022)

Key:
GluN1/GluN3A receptors = GluN1/GluN3A receptors (UniProt Q05586+Q9R1M7); test: Whole-cell patch-clamp recording on GluN1/GluN3A Flp-in T-REx 293 stable cell lines; assay type: cell-based, human GluN1-1a, rat GluN3A; design: expressed in transfected cells
Protocol: (§1) To establish GluN1/GluN3A stable cell lines, the human GluN1-1a (GenBank: NP_015566.1) and the rat GluN3A (GenBank: NP_612555.1) genes were subcloned into the pcDNA5-FRT-To and pcDNA3.1 vectors, respectively. An EGFP tag was added to the C-terminus of GluN1 or GluN3A using a T2A linker for identification of transfected cells during transient transfection. Point mutations were introduced by site-directed mutagenesis using PrimeSTAR (Takara). The human GluN2A (GenBank: NP_000824.1) gene was subcloned into the pcDNA3.1 vector. The chimeras GluN3A^670-673 MWPL/LEPF and GluN2A^550-553 LEPF/MWPL were generated using In-Fusion HD Cloning kits (Takara). All constructs were confirmed by DNA sequencing (Beijing Genomics Institute).
(§2) The Flp-in T-Rex 293 cell lines (Invitrogen), stably expressing GluN1/GluN3A were grown in DMEM basal medium (Gibco) supplemented with 10% fetal bovine serum (FBS, Invitrogen), 15 μg/ml blasticidin S (Invitrogen), 50 μg/ml hygromycin B (Invitrogen) and 500 μg/ml G418 (Gibco). Expression in cell lines was induced with 1 μg/ml doxycycline (Invitrogen) 24–28 h prior to the experiments. Chinese hamster ovary (CHO) cells were grown in DMEM-F12 basal medium (Gibco) supplemented with 10% FBS. In the study on the action sites of WZB117, all whole-cell patch-clamp recordings were performed on CHO cells. The transfections were carried out using Lipofectamine 3000 transfection reagent (Thermo Fisher) according to the manufacturer’s instructions. All cells mentioned above were cultured in a 5% CO2 incubator at 37°C and passaged every other day at a ratio of 1:3.
Whole-cell patch-clamp recordings were performed at room temperature (22–25°C) using an EPC-10 amplifier and Patch Master Software (HEKA). Pipettes were pulled from borosilicate glass capillaries (World Precision Instruments), and the resistances were 3–5 MΩ when filled with the intracellular solution. The extracellular solution contained (in mM): 140 NaCl, 2.8 KCl, 1 CaCl2, 10 HEPES and 20 sucrose (290–300 mOsm), pH adjusted to 7.3 using NaOH. The pipette solution contained (in mM): 115 CsF, 10 CsCl, 10 HEPES and 10 BAPTA (280–290 mOsm), pH adjusted to 7.2 using CsOH ([Grand et al., 2018]). When recording in hippocampal neurons, the extracellular solution contained (in mM): 140 NaCl, 5 KCl, 1 CaCl2, 1.25 MgCl2, 10 glucose, and 10 HEPES, and the pH was adjusted to 7.4 using NaOH, and the pipette solution contained (in mM): 140 KCl, 1 MgCl2, 10 EGTA, and 10 HEPES, and the pH was adjusted to 7.2 using KOH ([Xie et al., 2020]). Drug-containing solutions were applied through an RSC-200 Rapid Solution Changer with a 9-tube head (BioLogic Co., France), in which the cell is positioned close to the output of a capillary. The solution, containing either one drug or a combination of different drugs, to be assayed flows out of the capillary at a moderate flow rate by gravity. The lifted cell, exposed to this stream, rapidly equilibrates in the perfusion solution. Whole-cell patch-clamp recordings in heterologous cells and hippocampal neurons were performed at a holding potential of −60 mV. Currents were sampled at 10 kHz and low pass filtered at 2.9 kHz. To record the native GluN1/GluN3 receptor-mediated currents, the extracellular solution was supplemented with 10 μM bicuculline (Sigma-Aldrich), 2 μM NBQX (Topscience), 100 μM D-APV (MCE), and 50 μM strychnine (UHN Shanghai) to block γ-aminobutyric acid type A (GABAA), α-amino-3-hydroxy-5-methylisoxazole-4-propionate (AMPA), GluN1/GluN2 NMDA and glycine receptors, respectively. To record the native GluN2-NMDARs-mediated currents, 10 μM bicuculline and 2 μM NBQX were added into the extracellular solution to block GABAA receptors and AMPA receptors, respectively ([Grand et al., 2018]; [Otsu et al., 2019]; [Zhu et al., 2020]).
Patch-clamp data were processed using Clampfit 10.4 (Molecular Device, Sunnyvale, CA, United States) and analyzed with GraphPad Prism 5.0 (GraphPad Software, San Diego, CA, United States). […]

[1] = system: GluN1/GluN2 (2A-2D) receptors; test: TEVC recording in Xenopus oocytes expressing GluN1/GluN2 (2A-2D); assay type: cell-based; conditions: 30 μM WZB117; 100 μM glycine and 100 μM glutamate coapplied
Protocol: Two-electrode voltage-clamp (TEVC) recordings were performed on Xenopus oocytes expressing various subtypes of recombinant NMDARs. Each oocyte was injected with a mixture of 0.5–1.0 ng cDNAs or cRNAs encoding wild-type (WT) or mutant GluN1 (GluN1-1a or GluN1-4a) and GluN2 (2A-2D) or GluN3 (3A-3B) at a ratio of 1:1. The mutant GluN1-4a ^F484A/T518L was injected together with GluN3B to boost the currents of GluN1/GluN3B receptors, and WT GluN1-1a was used unless otherwise stated. The cRNAs of GluN1-4a, GluN3A and GluN3B were transcribed from corresponding DNAs using the mMESSAGE mMACHINE T7 Ultra kit (Life Technologies) according to the manufacturer’s instructions, and the others not specified were cDNAs. TEVC recording was performed 24–72 h post injection in extracellular solution containing (in mM): 100 NaCl, 0.3 BaCl2, 2.5 KCl, 0.01 DTPA and 5 HEPES, and the pH was adjusted to 7.3 using NaOH. All recordings were carried out at a holding potential of −60 mV.

[2] = system: GluN1/GluN3A with mutations in the pre-M1 region of the GluN1 subunit; test: Whole-cell patch-clamp on transiently transfected CHO cells, GluN1 pre-M1 alanine mutants; assay type: cell-based
Protocol: as §1
as §2, with “The transfections were carried out using Lipofectamine 3000 transfection reagent (Thermo Fisher) according to the manufacturer’s instructions. All cells mentioned above were cultured in a 5% CO2 incubator at 37°C and passaged every other day at a ratio of 1:3.” left out

[3] = biological target: T1, chimera GluN1/GluN2A^550-553 LEPF/MWPL (Homo sapiens, UniProt Q05586+Q12879, E551W/F553L/L550M); test: Whole-cell patch-clamp on transiently transfected CHO cells, GluN2A chimera; assay type: cell-based
T1 construct: expressed in transfected cells; host or cells: CHO, transient
Protocol: as §1
as §2, with “The transfections were carried out using Lipofectamine 3000 transfection reagent (Thermo Fisher) according to the manufacturer’s instructions. All cells mentioned above were cultured in a 5% CO2 incubator at 37°C and passaged every other day at a ratio of 1:3.” left out

GluN1/GluN3A receptors, sequence (Q9R1M7 24-1135, other chains not shown): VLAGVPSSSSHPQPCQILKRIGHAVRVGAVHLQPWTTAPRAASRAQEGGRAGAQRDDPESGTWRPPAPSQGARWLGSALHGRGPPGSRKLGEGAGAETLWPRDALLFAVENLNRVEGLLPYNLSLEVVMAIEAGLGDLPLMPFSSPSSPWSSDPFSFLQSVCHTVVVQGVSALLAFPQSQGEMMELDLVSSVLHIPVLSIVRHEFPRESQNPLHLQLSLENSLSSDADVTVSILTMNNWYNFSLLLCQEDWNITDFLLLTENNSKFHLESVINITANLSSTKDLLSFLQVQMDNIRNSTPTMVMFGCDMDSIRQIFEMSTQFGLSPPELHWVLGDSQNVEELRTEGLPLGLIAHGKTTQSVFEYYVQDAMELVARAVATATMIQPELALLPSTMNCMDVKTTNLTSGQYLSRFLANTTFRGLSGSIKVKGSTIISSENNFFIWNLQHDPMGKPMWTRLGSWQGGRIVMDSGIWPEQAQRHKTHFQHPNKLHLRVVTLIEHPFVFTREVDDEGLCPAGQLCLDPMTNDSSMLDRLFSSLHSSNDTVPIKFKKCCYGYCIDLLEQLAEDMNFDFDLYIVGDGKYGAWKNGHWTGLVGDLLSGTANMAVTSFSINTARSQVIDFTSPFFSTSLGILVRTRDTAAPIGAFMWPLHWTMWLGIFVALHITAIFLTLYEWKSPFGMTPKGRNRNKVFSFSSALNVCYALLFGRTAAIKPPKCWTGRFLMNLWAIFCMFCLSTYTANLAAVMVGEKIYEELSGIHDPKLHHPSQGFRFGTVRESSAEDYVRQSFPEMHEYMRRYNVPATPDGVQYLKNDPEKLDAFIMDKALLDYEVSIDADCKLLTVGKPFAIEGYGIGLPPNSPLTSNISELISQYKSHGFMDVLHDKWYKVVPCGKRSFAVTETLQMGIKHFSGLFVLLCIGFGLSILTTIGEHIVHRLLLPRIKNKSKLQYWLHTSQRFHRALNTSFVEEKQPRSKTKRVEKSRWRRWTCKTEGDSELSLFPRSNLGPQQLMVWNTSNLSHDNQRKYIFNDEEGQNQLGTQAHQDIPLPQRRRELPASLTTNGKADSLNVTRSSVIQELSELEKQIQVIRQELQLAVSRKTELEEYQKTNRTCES
T1 sequence (Q12879 23-1464 L550M/E551W/F553L, other chains not shown): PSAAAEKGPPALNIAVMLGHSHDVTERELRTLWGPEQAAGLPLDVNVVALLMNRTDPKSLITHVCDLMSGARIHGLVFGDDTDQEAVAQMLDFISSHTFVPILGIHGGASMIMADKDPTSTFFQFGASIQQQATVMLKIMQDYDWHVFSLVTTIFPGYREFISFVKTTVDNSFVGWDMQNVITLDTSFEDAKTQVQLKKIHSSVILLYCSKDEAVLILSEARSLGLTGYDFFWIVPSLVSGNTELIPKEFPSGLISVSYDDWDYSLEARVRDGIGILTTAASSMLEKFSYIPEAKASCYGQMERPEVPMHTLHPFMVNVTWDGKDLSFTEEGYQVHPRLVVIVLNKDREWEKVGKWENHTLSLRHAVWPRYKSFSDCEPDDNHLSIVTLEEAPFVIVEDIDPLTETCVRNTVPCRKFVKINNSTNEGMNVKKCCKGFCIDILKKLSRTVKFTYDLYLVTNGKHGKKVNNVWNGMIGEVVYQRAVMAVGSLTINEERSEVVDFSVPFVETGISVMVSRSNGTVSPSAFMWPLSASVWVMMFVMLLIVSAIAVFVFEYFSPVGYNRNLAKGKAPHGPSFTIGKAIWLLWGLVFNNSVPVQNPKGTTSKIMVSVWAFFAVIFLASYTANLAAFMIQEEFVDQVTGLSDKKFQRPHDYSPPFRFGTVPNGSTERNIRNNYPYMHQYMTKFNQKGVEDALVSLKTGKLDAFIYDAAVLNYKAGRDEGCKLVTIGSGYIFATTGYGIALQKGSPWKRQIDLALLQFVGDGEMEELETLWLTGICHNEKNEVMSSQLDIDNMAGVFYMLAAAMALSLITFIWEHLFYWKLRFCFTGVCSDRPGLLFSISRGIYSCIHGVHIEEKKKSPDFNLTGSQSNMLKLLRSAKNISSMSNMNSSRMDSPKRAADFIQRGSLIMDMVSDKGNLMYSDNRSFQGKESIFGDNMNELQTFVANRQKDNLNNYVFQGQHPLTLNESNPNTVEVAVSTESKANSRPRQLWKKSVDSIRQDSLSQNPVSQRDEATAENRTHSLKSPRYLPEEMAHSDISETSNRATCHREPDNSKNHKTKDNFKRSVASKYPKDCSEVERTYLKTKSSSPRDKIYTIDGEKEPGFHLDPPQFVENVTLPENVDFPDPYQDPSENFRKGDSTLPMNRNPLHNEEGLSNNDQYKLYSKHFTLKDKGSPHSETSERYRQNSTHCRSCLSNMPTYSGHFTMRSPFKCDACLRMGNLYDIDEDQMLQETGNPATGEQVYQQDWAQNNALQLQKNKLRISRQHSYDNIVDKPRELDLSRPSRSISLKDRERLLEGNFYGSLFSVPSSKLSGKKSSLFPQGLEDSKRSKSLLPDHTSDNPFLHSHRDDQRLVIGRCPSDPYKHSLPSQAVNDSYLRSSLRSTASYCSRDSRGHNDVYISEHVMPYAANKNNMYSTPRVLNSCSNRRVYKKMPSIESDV

IC50 (GluN1/GluN3A receptors; 10 μM glycine): 1080 ± 310 nM | IC50 (GluN1/GluN3A receptors; 100 μM glycine, pH 7.3, holding potential −60 mV): 1150 ± 340 nM | remaining activity at 3 µM (GluN1/GluN3A receptors; Flp-In-T-REx-293, read-out: I drug/I control): 8 ± 2% | inhibition of currents [1]: relatively weak inhibition | sensitivity of chimera [3]: acquired higher sensitivity
SMILES: O=C(Oc1cccc(F)c1OC(=O)c1cccc(O)c1)c1cccc(O)c1 [WZB117, 3-fluoro-1,2-phenylene bis(3-hydroxybenzoate)]
influence of mutations on activity [2]: none of the mutations in the pre-M1 region of the GluN1 subunit showed a detectable influence
